Measured values taken from US7754202B1, “Methods of controlling cell differentiation and growth using a fusion protein and a drug” (Stanford University, priority 1998, dated 2010).

Assays:
[1] = Solubility in aqueous culture medium; assay type: physicochemical; conditions: aqueous buffer, serial dilution in culture medium, read-out: highest concentration ensuring complete solubility in the (aqueous) medium
Experimental: Working concentrations of AP1510 can be obtained by adding compound directly from ethanol stocks, or by diluting serially in culture medium just before use. In the latter case it is recommended that the highest concentration not exceed 5 uM, to ensure complete solubility in the (aqueous) medium. In either case, the final concentration of ethanol in the medium added to mammalian cells should be kept below 0.5% (a 200-fold dilution of a 100% ethanol solution) to prevent detrimental effects of the solvent on the cells.

cells = experiment: Immunosuppressive activity or other toxicity to cells; assay type: cell-based; conditions: in experiments to date
[2] = test system: Ba/F3 cell lines expressing gp130 signaling domain fused to FKBP12 domains; experiment: Proliferation of Ba/F3 cell lines expressing gp130-FKBP12 fusion proteins; assay type: cell-based
From the text: Expression cassettes encoding fusion proteins containing the signaling domains of the gp130 fused to one, two or three copies of the FKBP12 domain were used to generate stably transfected Ba/F3 cell lines. The complexes that can be assembled in response to FK1012 differ for the various fusion proteins. In the presence of FK1012, fusion proteins containing a single FKBP domain are limited to simple dimerization, whereas proteins containing two or more FKBP domains can form both dimers and oligomers.
In one illustrative experiment, an MSCV-based expression vector was constructed that contained two FKBP12 domains.

[3] = test system: CD34+ cells from human cord blood transduced with dimerizer-responsive c-mpl signaling domain; experiment: Amplification and erythroid differentiation of MFM-transduced human cord blood CD34+ cells; assay type: cell-based
From the text: CD34+ cells were selected from human cord blood and transduced with a PG13-packaged, MSCV-based retrovirus vector encoding a dimerizer-responsive version of the c-mpl signaling domain (MFM, as described in Example 7, see FIG. 4). […] This finding was reproducible, occurring in each of four separate experiments.

transduced marrow cells = experiment: Reversibility of FK1012-dependent cell proliferation after 28 days of culture; assay type: cell-based, murine
Experimental: For the experiments whose results are shown in Table 3, after 28 days of culture in FK1012 (100 nM), transduced marrow cells were washed extensively and cultured in suspension in the presence (+) or absence (−) of FK1012. The numbers in Table 3 indicate the number of cells per well×10^−5.

[4] = test system: clonogenic progenitor cells (CFU-C) of MSCVF1mpl-transduced marrow; experiment: CFU-C assays during suspension culture, with or without G418; assay type: cell-based, murine
Experimental: FIG. 3: CFU-C assays at various time points during suspension culture. Cells were harvested on the days indicated and cultured in semisolid media (Blau, et al. Hum. Gen. Ther. 7:2069, 1996) either in the presence or absence of G418. The concentration of G418, […], was sufficient to prevent the growth of nontransduced cells (data not shown). Dark bars: CFU-C numbers in the absence of G418; Light bars: CFU-C numbers in the presence of G418. (A) No FK1012, no FL; (B) FK1012 alone; (C) FL alone; (D) FK1012 plus FL. Note that FK1012-mediated CFU-C expansion markedly favors the genetically modified cell population.
To determine whether FK1012 is capable of stimulating expansion among clonogenic progenitor cells, progenitors were assayed at various time points of culture as colony forming unit cells (CFU-C). As the MSCVF1mpl vector incorporates a neo gene. (Hawley, et al. Gene Ther. 1:136, 1994), the frequency of genetically modified progenitors is reflected in the frequency of G418 resistant CFU-C. […] By day 28 CFU-C had fallen to undetectable levels (FIG. 3A). In contrast, in the presence of FK1012 an almost 600,000-fold expansion in CFU-C was observed by day 42 (FIG. 3B). […] Of note is that while granulocytes were virtually absent after 42 days in suspension culture in the presence of FK1012 alone, CFU-C progeny derived from these cultures contained large numbers of granulocytes. […]

G418 resistant CFU-C = experiment: FK1012-mediated selection of genetically modified CFU-C in a mixed transduced/non-transduced marrow population; assay type: cell-based, murine; conditions: mixed transduced and non-transduced marrow
From the text: In order to determine whether FK1012 is capable of specifically delivering a mitogenic signal to a minor population of genetically modified CFU-C, marrow cells cocultivated with the MSCVF1mpl producer cell line were mixed with marrow cells cocultivated with the parental packaging cell line. The frequency of G418 CFU-C arising from this mixed population of transduced and non-transduced cells was 35%.
The numbers in Table 4 indicate the fraction of G418 resistant CFU-C.

[5] = test system: murine bone marrow cells transduced with MSCVF1mpl; experiment: Suspension culture of MSCVF1mpl-transduced bone marrow cells (cell numbers, cell types); assay type: cell-based
Experimental: FIG. 2: FK1012 stimulates expansion of genetically modified bone marrow cells. Following retroviral transduction, marrow cells were cultured in IMDM containing 10% FCS, 50 U/ml penicillin, […] streptomycin either in the presence or absence of FK1012 (100 nM) or flt-3 ligand (Peprotech-100 ng/ml), in a 37°, 5% CO2, incubator. Cell numbers were determined on the days indicated. Open diamonds: No FK1012, no FL; Closed diamonds: FK1012 alone; Open circles: FL alone; Closed circles: FK1012 plus FL. Note that X axis is on a logarithmic scale.
Forty-eight hours following administration of 150 mg/kg 5-fluorouracil (5-FU), marrow cells were harvested from B6D2F1 mice and cultured for 48 hours in Dulbecco's Modified Eagle's Medium containing 16% fetal calf serum (Intergen), 5% IL3-conditioned medium (Stem Cell Technologies), 100 ng/ml recombinant human IL6 and 50 ng/ml recombinant murine stem cell factor in a 37° C., 5% CO2 incubator. After 48 hours, cells were transferred onto irradiated (1500 cGy) producer cells and cocultivated using the same growth conditions except for the addition of polybrene ([…]). Marrow cells were harvested after 48-hours of cocultivation.
In order to test whether the pharmacological activation of mpl is capable of driving proliferation in genetically modified bone marrow cells, the F1mpl construct was inserted into the retroviral vector MSCV-neoEB (Hawley, et al. Gene Ther. 1:136, 1994). The resulting construct, MSCVF1mpl, was used to generate a stable, high titer, helper virus-free ecotropic producer cell line as described above. Supernatant from the producer cell line was capable of conferring G418 resistance and FK1012 responsiveness in transduced Ba/F3 cell clones (FIG. 1C). Gene transfer into murine bone marrow cells was performed by cocultivation, and transduced marrow cells were tested in suspension culture for the capacity to respond to FK1012. In one set of cultures, FK1012's effects were evaluated in the absence of added growth factors. […] Cell numbers were determined at various time points of culture (FIG. 2). In the absence of drug or added growth factors, all cells died over a period of 7-14 days. […] In contrast, FK1012 dramatically stimulated cell proliferation. The proliferative effect of FK1012 was apparent within 5 days of culture, and has persisted for longer than 49 days without evidence of decline. […] By 42 days of culture FK1012 had induced a greater than 2.5 million-fold expansion in cell numbers.
The types of cells emerging in response to FK1012 differed at varying time points of culture. […] Similar results were obtained in a second experiment.

[6] = gp130 chimeric proteins containing a single FKBP12 domain
[7] = gp130 fusion proteins with two or three FKBP12 domains
[8] = FK1012 100 nM, suspension culture

Molecule: CCC(C)(C)C(=O)C(=O)N1CCCC[C@H]1C(=O)O[C@H](CCc1ccc(OC)c(OC)c1)c1cccc(OCC(=O)NCCNC(=O)COc2cccc([C@@H](CCc3ccc(OC)c(OC)c3)OC(=O)[C@@H]3CCCCN3C(=O)C(=O)C(C)(C)CC)c2)c1 [AP1510]
- solubility [1]: ≤ 5 µM
- immunosuppressive activity or other toxicity to cells (cells): no immunosuppressive activity or other toxicity to cells
- proliferative response [2, 6]: minimal proliferative response
- proliferative response [2, 7]: vigorous proliferative responses

Molecule: CC[C@H](C(=O)N1CCCC[C@H]1C(=O)O[C@H](CCc1ccc(OC)c(OC)c1)c1cccc(OCC(=O)NCCNC(=O)COc2cccc([C@@H](CCc3ccc(OC)c(OC)c3)OC(=O)[C@@H]3CCCCN3C(=O)[C@@H](CC)c3cc(OC)c(OC)c(OC)c3)c2)c1)c1cc(OC)c(OC)c(OC)c1 [AP1903]
- cell proliferation ([2]; MSCV construct, gp130 with two modified FKBP12 domains, Ba/F3 cells): vigorous AP1903-dependent cell proliferation
- cells expressing glycophorin ([3]; by day 15 of culture): 90%
- expansion in total cell numbers ([3]; in the absence of added cytokines): 175-350 fold

Molecule: FK1012
- number of cells per well (transduced marrow cells; absence (−) of FK1012 after 28 days in FK1012 and washing, day 0): 5 10^5 cells per well
- number of cells per well (transduced marrow cells; absence (−) of FK1012 after 28 days in FK1012 and washing, day 7): 0.59 10^5 cells per well
- number of cells per well (transduced marrow cells; absence (−) of FK1012 after 28 days in FK1012 and washing, day 14): .09 cells per well×10^−5
- reversibility of proliferative effect (transduced marrow cells; cells cultured 28 days in FK1012, then withdrawal or re-addition): withdrawal of FK1012 was followed promptly by cell death
- number of cells per well (transduced marrow cells; presence (+) of FK1012, day 0 in culture): 5 10^5 cells per well
- number of cells per well (transduced marrow cells; presence (+) of FK1012, day 7 in culture): 36 10^5 cells per well
- number of cells per well (transduced marrow cells; presence (+) of FK1012, day 14 in culture): 1283 10^5 cells per well
- expansion in CFU-C ([4]; by day 42, FK1012 alone): ~600,000 fold
- fraction of G418 resistant CFU-C (G418 resistant CFU-C; day 0 in culture): 0.35
- fraction of G418 resistant CFU-C (G418 resistant CFU-C; day 7 in culture): 0.96
- proliferative response [2, 6]: minimal proliferative response
- proliferative response [2, 7]: lesser proliferative responses
- persistence of proliferative effect without evidence of decline [5, 8]: > 49 days
- time until proliferative effect apparent [5, 8]: ≤ 5 days
- expansion in cell numbers ([5]; by 42 days of culture, FK1012 100 nM): greater than 2.5 million
- types of cells emerging ([5]; first two weeks of culture in FK1012): mature granulocytes and macrophages predominated, while megakaryocytes were rare
- types of cells emerging ([5]; later time points of culture in FK1012): megakaryocytes emerged as the dominant phenotypically identifiable cell population
- in vivo half life (In vivo half life): less than one

B1: FL: flt-3 ligand (Peprotech), growth factor used at 100 ng/ml (protein, UniProt P49771 27-235, looked up)
Fms-related tyrosine kinase 3 …: TQDCSFQHSPISSDFAVKIRELSDYLLQDYPVTVASNLQDEELCGGLWRLVLAQRWMERLKTVAGSKMQGLLERVNTEIHFVTKCAFQPPPSCLRFVQTNISRLLQETSEQLVALKPWITRQNFSRCLELQCQPDSSTLPPPWSPRPLEATAPTAPQPPLLLLLLLPVGLLLLAAAWCLHWQRTRRRTPRPGEQVPPVPSPQDLLLVEH
- expansion in CFU-C ([4]; FL alone, transient, without preference for the transduced population): seven
- fraction of G418 resistant CFU-C (G418 resistant CFU-C; day 0 in culture): 0.35
- fraction of G418 resistant CFU-C (G418 resistant CFU-C; day 7 in culture): 0.14
- cell survival in suspension culture ([5]; FL alone): all cells died by day 28
- expansion in cell numbers ([5]; FL alone (100 ng/ml), between 9 and 12 days of suspension culture): three
